Test results reported in ChEMBL document CHEMBL3132769, “Fragment growing to retain or alter the selectivity of anchored kinase hinge-binding fragments” (Medchemcomm, 2014).

Legend:
[1] = target: Tyrosine-protein kinase BTK (Homo sapiens) (UniProt Q06187); assay: Inhibition of human full length BTK expressed in baculovirus assessed as substrate phosphorylation using fluorescence-labelled peptides as substrate at 0.06 uM after 90 mins by microfluidic peptide phosphorylation assay
[2] = target: T1, Serine/threonine-protein kinase D2 (Homo sapiens) (UniProt Q9BZL6); assay: Inhibition of human full length PKD2 expressed in baculovirus assessed as substrate phosphorylation using fluorescence-labelled peptides as substrate at 70 uM after 90 mins by microfluidic peptide phosphorylation assay
T1 sequence (whole entry): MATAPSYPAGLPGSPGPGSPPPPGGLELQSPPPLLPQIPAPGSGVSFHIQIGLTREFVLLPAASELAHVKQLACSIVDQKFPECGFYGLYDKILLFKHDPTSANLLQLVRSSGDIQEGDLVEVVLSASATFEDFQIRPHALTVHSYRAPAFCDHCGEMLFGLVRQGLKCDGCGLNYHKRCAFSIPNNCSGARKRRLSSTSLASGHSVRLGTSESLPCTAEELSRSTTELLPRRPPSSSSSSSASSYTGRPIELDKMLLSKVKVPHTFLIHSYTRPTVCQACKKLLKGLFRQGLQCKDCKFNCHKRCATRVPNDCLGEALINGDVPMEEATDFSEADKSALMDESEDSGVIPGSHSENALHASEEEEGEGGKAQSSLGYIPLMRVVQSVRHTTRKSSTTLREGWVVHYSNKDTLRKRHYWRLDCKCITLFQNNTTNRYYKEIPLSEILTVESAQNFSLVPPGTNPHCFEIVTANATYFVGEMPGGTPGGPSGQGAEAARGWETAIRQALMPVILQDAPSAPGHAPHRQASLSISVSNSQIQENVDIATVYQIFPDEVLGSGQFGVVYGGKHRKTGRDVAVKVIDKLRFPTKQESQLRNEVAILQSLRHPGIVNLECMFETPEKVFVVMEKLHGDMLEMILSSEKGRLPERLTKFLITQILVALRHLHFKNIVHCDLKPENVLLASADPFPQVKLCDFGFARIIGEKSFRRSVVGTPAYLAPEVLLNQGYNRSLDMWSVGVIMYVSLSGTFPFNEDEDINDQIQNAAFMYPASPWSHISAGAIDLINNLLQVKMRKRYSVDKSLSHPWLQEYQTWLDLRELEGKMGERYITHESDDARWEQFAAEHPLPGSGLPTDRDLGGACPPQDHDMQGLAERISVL

[3] = target: Protein kinase C beta type (Homo sapiens) (UniProt P05771); assay: Inhibition of human full length PKC beta2 expressed in baculovirus assessed as substrate phosphorylation using fluorescence-labelled peptides as substrate at 95 uM after 90 mins by microfluidic peptide phosphorylation assay
Sequence of Protein kinase C beta type (Homo sapiens) (P05771 2-671 limits assumed): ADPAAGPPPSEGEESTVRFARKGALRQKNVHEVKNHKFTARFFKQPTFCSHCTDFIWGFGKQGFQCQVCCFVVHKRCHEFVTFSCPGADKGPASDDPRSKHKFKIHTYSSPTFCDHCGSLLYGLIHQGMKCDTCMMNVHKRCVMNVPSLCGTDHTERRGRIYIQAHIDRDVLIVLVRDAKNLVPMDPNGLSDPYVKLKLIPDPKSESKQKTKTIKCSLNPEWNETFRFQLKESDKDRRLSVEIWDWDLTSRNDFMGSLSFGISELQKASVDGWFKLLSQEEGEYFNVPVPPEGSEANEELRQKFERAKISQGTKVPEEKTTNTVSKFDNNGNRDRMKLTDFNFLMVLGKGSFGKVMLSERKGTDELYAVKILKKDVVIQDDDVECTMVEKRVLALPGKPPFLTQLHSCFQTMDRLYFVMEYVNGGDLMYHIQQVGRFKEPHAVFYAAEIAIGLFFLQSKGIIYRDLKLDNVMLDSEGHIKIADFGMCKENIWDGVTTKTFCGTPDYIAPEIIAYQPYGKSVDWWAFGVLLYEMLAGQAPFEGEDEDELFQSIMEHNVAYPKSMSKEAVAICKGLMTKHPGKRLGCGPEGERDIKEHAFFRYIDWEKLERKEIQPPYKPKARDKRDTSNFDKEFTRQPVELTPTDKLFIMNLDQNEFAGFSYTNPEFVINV

[4] = target: Insulin receptor (Homo sapiens) (UniProt P06213); assay: Inhibition of human INSR catalytic domain expressed in baculovirus assessed as substrate phosphorylation using fluorescence-labelled peptides as substrate at 95 uM after 90 mins by microfluidic peptide phosphorylation assay
[5] = target: Protein kinase C delta type (Homo sapiens) (UniProt Q05655); assay: Inhibition of human truncated PKC delta expressed in baculovirus assessed as substrate phosphorylation using fluorescence-labelled peptides as substrate at 9 uM after 90 mins by microfluidic peptide phosphorylation assay
Sequence of Protein kinase C delta type (Homo sapiens) (Q05655 whole entry, looked up, the tested form may be a part): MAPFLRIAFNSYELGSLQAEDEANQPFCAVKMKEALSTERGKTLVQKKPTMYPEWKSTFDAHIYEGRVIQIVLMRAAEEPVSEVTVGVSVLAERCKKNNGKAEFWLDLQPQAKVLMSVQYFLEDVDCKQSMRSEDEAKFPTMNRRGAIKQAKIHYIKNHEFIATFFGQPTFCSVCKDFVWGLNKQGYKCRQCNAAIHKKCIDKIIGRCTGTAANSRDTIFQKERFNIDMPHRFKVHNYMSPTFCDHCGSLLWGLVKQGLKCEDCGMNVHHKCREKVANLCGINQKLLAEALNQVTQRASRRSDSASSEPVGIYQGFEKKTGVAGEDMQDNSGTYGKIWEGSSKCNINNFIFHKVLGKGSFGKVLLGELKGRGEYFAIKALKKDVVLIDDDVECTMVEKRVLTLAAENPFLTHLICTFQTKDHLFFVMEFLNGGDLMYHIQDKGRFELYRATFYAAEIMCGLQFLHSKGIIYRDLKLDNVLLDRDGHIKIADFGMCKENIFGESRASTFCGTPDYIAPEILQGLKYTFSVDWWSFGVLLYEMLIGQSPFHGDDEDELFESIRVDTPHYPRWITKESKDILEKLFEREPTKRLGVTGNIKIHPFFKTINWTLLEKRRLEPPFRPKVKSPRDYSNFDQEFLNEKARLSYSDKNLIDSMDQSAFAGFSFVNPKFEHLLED

[6] = target: T2, Serine/threonine-protein kinase Nek2 (Homo sapiens) (UniProt P51955); assay: Inhibition of human full length NEK2 expressed in baculovirus assessed as substrate phosphorylation using fluorescence-labelled peptides as substrate at […] after 90 mins by microfluidic peptide phosphorylation assay
T2 sequence (whole entry): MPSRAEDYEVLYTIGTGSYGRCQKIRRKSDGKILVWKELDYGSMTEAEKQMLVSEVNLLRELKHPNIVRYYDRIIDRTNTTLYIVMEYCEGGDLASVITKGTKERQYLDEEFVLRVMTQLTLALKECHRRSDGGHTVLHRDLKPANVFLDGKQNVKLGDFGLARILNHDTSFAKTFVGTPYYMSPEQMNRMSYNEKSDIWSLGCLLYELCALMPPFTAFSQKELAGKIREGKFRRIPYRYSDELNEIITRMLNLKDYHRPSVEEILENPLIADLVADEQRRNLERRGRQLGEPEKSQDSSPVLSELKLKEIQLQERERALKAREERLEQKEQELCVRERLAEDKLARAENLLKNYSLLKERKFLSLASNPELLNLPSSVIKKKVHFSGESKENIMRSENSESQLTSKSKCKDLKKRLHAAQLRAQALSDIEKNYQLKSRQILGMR

[7] = target: T3, cGMP-dependent protein kinase 1 (Homo sapiens) (UniProt Q13976); assay: Inhibition of human full length PKG-1a expressed in baculovirus assessed as substrate phosphorylation using fluorescence-labelled peptides as substrate at […] after 90 mins by microfluidic peptide phosphorylation assay
T3 sequence (whole entry): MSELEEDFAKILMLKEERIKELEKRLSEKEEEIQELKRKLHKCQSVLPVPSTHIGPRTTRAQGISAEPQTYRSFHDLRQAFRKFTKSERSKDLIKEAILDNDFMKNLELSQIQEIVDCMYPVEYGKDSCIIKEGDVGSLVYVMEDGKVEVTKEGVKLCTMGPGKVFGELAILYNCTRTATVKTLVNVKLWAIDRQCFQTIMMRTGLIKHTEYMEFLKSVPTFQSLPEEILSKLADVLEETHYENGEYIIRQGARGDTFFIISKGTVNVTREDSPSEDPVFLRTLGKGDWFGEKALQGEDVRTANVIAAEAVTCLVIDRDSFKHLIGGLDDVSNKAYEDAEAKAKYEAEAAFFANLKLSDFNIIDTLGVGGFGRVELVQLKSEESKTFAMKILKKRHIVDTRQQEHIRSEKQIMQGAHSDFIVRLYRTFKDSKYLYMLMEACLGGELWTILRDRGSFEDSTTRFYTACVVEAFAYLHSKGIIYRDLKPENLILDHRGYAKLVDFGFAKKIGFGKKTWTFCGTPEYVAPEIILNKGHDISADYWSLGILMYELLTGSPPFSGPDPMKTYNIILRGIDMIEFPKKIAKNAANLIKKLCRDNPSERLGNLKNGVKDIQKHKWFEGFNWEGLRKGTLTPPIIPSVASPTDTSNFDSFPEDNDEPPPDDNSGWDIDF

[8] = target: Casein kinase I isoform delta (Homo sapiens) (UniProt P48730); assay: Inhibition of human CK1D catalytic domain expressed in Escherichia coli cell assessed as substrate phosphorylation using fluorescence-labelled peptides as substrate at 8 uM after 90 mins by microfluidic peptide phosphorylation assay
Sequence of Casein kinase I isoform delta (Homo sapiens) (P48730 whole entry, looked up, the tested form may be a part, canonical isoform): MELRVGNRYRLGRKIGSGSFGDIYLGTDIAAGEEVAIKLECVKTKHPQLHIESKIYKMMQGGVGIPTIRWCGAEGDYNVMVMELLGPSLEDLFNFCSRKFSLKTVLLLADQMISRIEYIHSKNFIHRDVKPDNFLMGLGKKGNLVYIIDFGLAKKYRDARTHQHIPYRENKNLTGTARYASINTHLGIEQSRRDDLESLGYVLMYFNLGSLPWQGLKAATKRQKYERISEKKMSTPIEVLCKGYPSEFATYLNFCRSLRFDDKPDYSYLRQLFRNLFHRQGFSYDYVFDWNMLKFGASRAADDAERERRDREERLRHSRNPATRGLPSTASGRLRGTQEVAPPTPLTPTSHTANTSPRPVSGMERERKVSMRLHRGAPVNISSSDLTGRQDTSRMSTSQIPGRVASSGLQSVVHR

[9] = target: RAF proto-oncogene serine/threonine-protein kinase (Homo sapiens) (UniProt P04049); assay: Inhibition of human truncated c-Raf expressed in baculovirus assessed as substrate phosphorylation using fluorescence-labelled peptides as substrate at 8 uM after 90 mins by microfluidic peptide phosphorylation assay
Sequence of RAF proto-oncogene serine/threonine-protein kinase (Homo sapiens) (P04049 whole entry, the tested form may be a part): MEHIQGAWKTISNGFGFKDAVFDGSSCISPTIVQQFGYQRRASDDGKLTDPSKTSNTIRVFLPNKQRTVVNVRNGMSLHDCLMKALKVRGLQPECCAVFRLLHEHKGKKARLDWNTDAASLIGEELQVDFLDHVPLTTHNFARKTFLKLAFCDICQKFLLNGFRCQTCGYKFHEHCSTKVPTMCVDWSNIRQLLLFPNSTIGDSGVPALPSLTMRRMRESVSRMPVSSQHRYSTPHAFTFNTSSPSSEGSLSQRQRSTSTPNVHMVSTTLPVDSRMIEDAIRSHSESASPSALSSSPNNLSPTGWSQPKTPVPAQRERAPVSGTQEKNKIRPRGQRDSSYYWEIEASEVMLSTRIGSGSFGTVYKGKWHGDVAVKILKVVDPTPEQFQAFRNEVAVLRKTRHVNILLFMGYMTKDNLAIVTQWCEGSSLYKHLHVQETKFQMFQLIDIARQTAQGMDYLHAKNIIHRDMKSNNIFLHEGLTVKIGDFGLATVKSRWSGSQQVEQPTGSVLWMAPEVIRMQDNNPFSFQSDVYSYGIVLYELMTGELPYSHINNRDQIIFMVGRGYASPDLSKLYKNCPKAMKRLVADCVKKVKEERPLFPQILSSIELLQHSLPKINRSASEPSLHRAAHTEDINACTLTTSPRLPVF

[10] = target: Tyrosine-protein kinase HCK (Homo sapiens) (UniProt P08631); assay: Inhibition of human HCK catalytic domain expressed in baculovirus assessed as substrate phosphorylation using fluorescence-labelled peptides as substrate at 8 uM after 90 mins by microfluidic peptide phosphorylation assay
Sequence of Tyrosine-protein kinase HCK (Homo sapiens) (P08631 2-526 limits assumed): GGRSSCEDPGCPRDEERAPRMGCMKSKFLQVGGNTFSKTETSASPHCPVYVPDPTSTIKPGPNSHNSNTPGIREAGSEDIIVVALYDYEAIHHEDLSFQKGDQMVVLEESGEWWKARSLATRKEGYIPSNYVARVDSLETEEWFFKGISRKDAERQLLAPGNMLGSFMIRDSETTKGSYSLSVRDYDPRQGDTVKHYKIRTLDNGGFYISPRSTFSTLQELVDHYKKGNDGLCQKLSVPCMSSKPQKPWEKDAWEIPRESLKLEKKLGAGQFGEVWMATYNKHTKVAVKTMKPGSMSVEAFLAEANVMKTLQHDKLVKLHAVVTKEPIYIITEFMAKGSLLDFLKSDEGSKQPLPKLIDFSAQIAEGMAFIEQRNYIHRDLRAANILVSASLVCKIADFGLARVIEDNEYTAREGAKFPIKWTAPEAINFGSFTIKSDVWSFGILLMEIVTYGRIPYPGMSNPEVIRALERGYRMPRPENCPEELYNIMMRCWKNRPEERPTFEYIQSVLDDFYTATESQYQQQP

[11] = target: Insulin receptor (Homo sapiens) (UniProt P06213); settings: 0.1 uM
Description: Inhibition of human INSR catalytic domain expressed in baculovirus assessed as substrate phosphorylation using fluorescence-labelled peptides as substrate at 0.1 uM after 90 mins by microfluidic peptide phosphorylation assay

Sequence of Tyrosine-protein kinase BTK (Homo sapiens) (Q06187 whole entry): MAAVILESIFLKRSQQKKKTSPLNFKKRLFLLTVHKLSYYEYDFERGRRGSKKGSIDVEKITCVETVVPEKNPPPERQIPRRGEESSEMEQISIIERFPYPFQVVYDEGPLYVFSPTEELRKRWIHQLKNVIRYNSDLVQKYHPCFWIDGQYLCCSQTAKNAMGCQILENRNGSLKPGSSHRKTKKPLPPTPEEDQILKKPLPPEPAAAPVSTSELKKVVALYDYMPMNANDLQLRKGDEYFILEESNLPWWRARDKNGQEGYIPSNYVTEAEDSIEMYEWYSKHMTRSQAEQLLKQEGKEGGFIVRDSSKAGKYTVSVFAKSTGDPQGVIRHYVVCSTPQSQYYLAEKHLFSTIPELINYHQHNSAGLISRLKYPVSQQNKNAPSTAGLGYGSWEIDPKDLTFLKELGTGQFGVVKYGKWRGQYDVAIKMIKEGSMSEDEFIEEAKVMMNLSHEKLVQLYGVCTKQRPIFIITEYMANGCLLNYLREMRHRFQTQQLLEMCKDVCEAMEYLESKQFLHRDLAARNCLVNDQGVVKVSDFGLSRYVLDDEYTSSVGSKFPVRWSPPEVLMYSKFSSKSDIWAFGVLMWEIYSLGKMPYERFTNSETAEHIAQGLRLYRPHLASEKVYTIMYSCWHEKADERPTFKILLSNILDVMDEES

NC1(Cc2ccc(Cl)cc2)CCN(c2ncnc3[nH]ccc23)CC1
inhibition [1]: 0%

CNCc1ccc(-c2ncnc3[nH]cnc23)cc1
inhibition [2]: 77.5%

NCCc1ccc(-c2ncnc3[nH]cnc23)cc1
inhibition [3]: 0%
inhibition [4]: 23.5%

NCC1CN(c2ncnc3[nH]c4cnccc4c23)CCO1 (stereo unspecified)
inhibition [5]: 37.5%

COC(=O)c1cnc(Nc2cnc(C#N)cn2)cc1NCC1CCNCC1
inhibition [6]: 0.5%
inhibition [7]: 4.5%

NCC1CCN(c2ncnc3[nH]ccc23)CC1
inhibition [8]: 25.5%
inhibition [9]: 2.5%
inhibition [10]: 19.5%

C[C@H](CN(C)C)Oc1nc(Nc2cc3cccc(Cl)c3cn2)cnc1C#N
inhibition [11]: 0%
